# From PMC2219390 (The Journal of General Physiology, 1996)
# Where “and” joins values, the source holds several entries; their conditions need not be identical. Identical values can stand only once. Like-named read-outs stand apart in the source and are kept apart here.
# What was measured:
# [1] = Fraction of uncharged molecules at pH 7.4; type: physicochemical
# [2] = tested on: rat brain voltage-dependent sodium channels (BTX-modified); type: biochemical
# [3] = Fig. 5 A, one channel, +60 mV, low-Kd period
Structure (SMILES),uncharged molecules [1],"Measured FO2 (fractional time in the high affinity conformation) ([2]; 0.4 mM QX-314, +60 mV, six channels, 3.66 h)","Measured FO2 (fractional time in the high affinity conformation) ([2]; 3.0 mM QX-314, +60 mV, two channels, 4.32 h)","block of the small subconductance channel state (~6 pS) ([2]; 30 mM lidocaine (0.2 M NaCl) or 0.4 mM QX-314 (0.5 M NaCl), Fig. 7)","koff (amplitude distribution, beta function fit) [2, 3]","kon (amplitude distribution, beta function fit) [2, 3]","koff ([2]; Table I A, symmetrical 0.5 M NaCl, 160mV as printed, channels a, b, c)","kon rate relative to lidocaine ([2]; low-Kd period, Table I part B)"
CCN(CC)CC(=O)Nc1c(C)cccc1C [lidocaine],~ 14%,–,–,–,–,–,–,–
"CC[N+](CC)(CC)CC(=O)Nc1c(C)cccc1C [QX-314, lidocaine N-ethyl]",–,0.655,0.983,did not block,238 s⁻¹,896000 M⁻¹ s⁻¹,238 s⁻¹ and 253 s⁻¹ and 291 s⁻¹ and 256 s⁻¹,about six times lower
